Experimental data from the supplement of paper PMC8671470.

Each compound was assayed on KU-812 (assay: cell viability (% survival relative to DMSO control, bortezomib = 0%); higher = less cytotoxic). Details: 1 nM; 72 h.
Outline: (§1)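 Percent survival is reported as the mean of duplicate wells. Cells from 10 AML and 5 CML lines were plated in 384-well plates containing compounds at 1, 10, 100, 1000 or 10000 nM and kept for 72 h at 37 °C in 5% CO2. Readout used CellTiter-Glo luminescence, scaled so that vehicle equals 100% and a 10 µM positive control equals 0%.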

In order of rising cell viability:
1. C[C@]12C=CC(=O)C=C1CC[C@@H]1[C@@H]2[C@@H](O)C[C@@]2(C)[C@H]1CC[C@]2(O)C(=O)CO [Prednisolone]  87.2%
2. C=CCN(C)CCCCCCOc1ccc(C(=O)c2ccc(Br)cc2)c(F)c1.O=C(O)/C=C/C(=O)O [Ro 48-8071 fumarate]  90.2%
3. CC(=O)Nc1nc(C)c(-c2ccc(Cl)c(S(=O)(=O)NCCO)c2)s1 [PIK93]  92.6%
4. OC[C@H]1O[C@@H](n2cnc3c2N=CNC[C@H]3O)C[C@@H]1O [Pentostatin]  96.4%
5. Cc1cccc(Nc2cc(Cl)nc(SCC(=O)O)n2)c1C [Pirinixic acid]  97.2%
6. CC[C@H](C)[C@H](N)C(=O)N1CCSC1 [P32/98]  97.7%
7. CCCCCCCC/C=C\CCCCCCCC(=O)Nc1ccccc1 [Octadec-9-Enoic Acid Phenylamide]  100%
8. CC(C)CC(=O)N[C@H](C(=O)N[C@H](C(=O)N[C@@H](CC(C)C)[C@@H](O)CC(=O)N[C@@H](C)C(=O)N[C@@H](CC(C)C)[C@@H](O)CC(=O)O)C(C)C)C(C)C [Pepstatin A]  102%

Same assay, conditions: 10 nM; 72 h

In order of falling cell viability:
1. C[C@]12C=CC(=O)C=C1CC[C@@H]1[C@@H]2[C@@H](O)C[C@@]2(C)[C@H]1CC[C@]2(O)C(=O)CO [Prednisolone]  104%
2. CC(C)CC(=O)N[C@H](C(=O)N[C@H](C(=O)N[C@@H](CC(C)C)[C@@H](O)CC(=O)N[C@@H](C)C(=O)N[C@@H](CC(C)C)[C@@H](O)CC(=O)O)C(C)C)C(C)C [Pepstatin A]  101%
3. OC[C@H]1O[C@@H](n2cnc3c2N=CNC[C@H]3O)C[C@@H]1O [Pentostatin]  99.5%
4. Cc1cccc(Nc2cc(Cl)nc(SCC(=O)O)n2)c1C [Pirinixic acid]  97.6%
5. COC(=O)c1cc2c(C(F)(F)F)cc(-c3ccccc3)cc2n1O [NHI-2]  96.9%
6. CCCCCCCC/C=C\CCCCCCCC(=O)Nc1ccccc1 [Octadec-9-Enoic Acid Phenylamide]  96.3%
7. CC(=O)Nc1nc(C)c(-c2ccc(Cl)c(S(=O)(=O)NCCO)c2)s1 [PIK93]  93.9%
8. C=CCN(C)CCCCCCOc1ccc(C(=O)c2ccc(Br)cc2)c(F)c1.O=C(O)/C=C/C(=O)O [Ro 48-8071 fumarate]  92.4%
9. CC[C@H](C)[C@H](N)C(=O)N1CCSC1 [P32/98]  92.3%
10. CN(Cc1cnc2nc(N)nc(N)c2n1)c1ccc(C(=O)N[C@@H](CCC(=O)O)C(=O)O)cc1 [Methotrexate]  63.1%

Same assay, conditions: 100 nM; 72 h

In order of falling cell viability:
1. OC[C@H]1O[C@@H](n2cnc3c2N=CNC[C@H]3O)C[C@@H]1O [Pentostatin]  112%
2. Cc1cccc(Nc2cc(Cl)nc(SCC(=O)O)n2)c1C [Pirinixic acid]  102%
3. C[C@]12C=CC(=O)C=C1CC[C@@H]1[C@@H]2[C@@H](O)C[C@@]2(C)[C@H]1CC[C@]2(O)C(=O)CO [Prednisolone]  99.8%
4. COC(=O)c1cc2c(C(F)(F)F)cc(-c3ccccc3)cc2n1O [NHI-2]  97.7%
5. CC(C)CC(=O)N[C@H](C(=O)N[C@H](C(=O)N[C@@H](CC(C)C)[C@@H](O)CC(=O)N[C@@H](C)C(=O)N[C@@H](CC(C)C)[C@@H](O)CC(=O)O)C(C)C)C(C)C [Pepstatin A]  96.8%
6. CCCCCCCC/C=C\CCCCCCCC(=O)Nc1ccccc1 [Octadec-9-Enoic Acid Phenylamide]  95.6%
7. CC(=O)Nc1nc(C)c(-c2ccc(Cl)c(S(=O)(=O)NCCO)c2)s1 [PIK93]  94.7%
8. CC[C@H](C)[C@H](N)C(=O)N1CCSC1 [P32/98]  92.6%
9. C=CCN(C)CCCCCCOc1ccc(C(=O)c2ccc(Br)cc2)c(F)c1.O=C(O)/C=C/C(=O)O [Ro 48-8071 fumarate]  76.2%
10. CN(Cc1cnc2nc(N)nc(N)c2n1)c1ccc(C(=O)N[C@@H](CCC(=O)O)C(=O)O)cc1 [Methotrexate]  38.9%

Same assay, conditions: 1000 nM; 72 h

In order of rising cell viability:
1. CN(Cc1cnc2nc(N)nc(N)c2n1)c1ccc(C(=O)N[C@@H](CCC(=O)O)C(=O)O)cc1 [Methotrexate]  33.3%
2. CC(=O)Nc1nc(C)c(-c2ccc(Cl)c(S(=O)(=O)NCCO)c2)s1 [PIK93]  80.1%
3. C=CCN(C)CCCCCCOc1ccc(C(=O)c2ccc(Br)cc2)c(F)c1.O=C(O)/C=C/C(=O)O [Ro 48-8071 fumarate]  80.7%
4. OC[C@H]1O[C@@H](n2cnc3c2N=CNC[C@H]3O)C[C@@H]1O [Pentostatin]  95.1%
5. Cc1cccc(Nc2cc(Cl)nc(SCC(=O)O)n2)c1C [Pirinixic acid]  96.4%
6. COC(=O)c1cc2c(C(F)(F)F)cc(-c3ccccc3)cc2n1O [NHI-2]  96.8%
7. CCCCCCCC/C=C\CCCCCCCC(=O)Nc1ccccc1 [Octadec-9-Enoic Acid Phenylamide]  96.8%
8. CC[C@H](C)[C@H](N)C(=O)N1CCSC1 [P32/98]  103%
9. CC(C)CC(=O)N[C@H](C(=O)N[C@H](C(=O)N[C@@H](CC(C)C)[C@@H](O)CC(=O)N[C@@H](C)C(=O)N[C@@H](CC(C)C)[C@@H](O)CC(=O)O)C(C)C)C(C)C [Pepstatin A]  111%
10. C[C@]12C=CC(=O)C=C1CC[C@@H]1[C@@H]2[C@@H](O)C[C@@]2(C)[C@H]1CC[C@]2(O)C(=O)CO [Prednisolone]  124%

Same assay, conditions: 10000 nM; 72 h

In order of falling cell viability:
1. OC[C@H]1O[C@@H](n2cnc3c2N=CNC[C@H]3O)C[C@@H]1O [Pentostatin]  115%
2. C[C@]12C=CC(=O)C=C1CC[C@@H]1[C@@H]2[C@@H](O)C[C@@]2(C)[C@H]1CC[C@]2(O)C(=O)CO [Prednisolone]  112%
3. CCCCCCCC/C=C\CCCCCCCC(=O)Nc1ccccc1 [Octadec-9-Enoic Acid Phenylamide]  108%
4. CC[C@H](C)[C@H](N)C(=O)N1CCSC1 [P32/98]  97.9%
5. Cc1cccc(Nc2cc(Cl)nc(SCC(=O)O)n2)c1C [Pirinixic acid]  97.3%
6. CC(C)CC(=O)N[C@H](C(=O)N[C@H](C(=O)N[C@@H](CC(C)C)[C@@H](O)CC(=O)N[C@@H](C)C(=O)N[C@@H](CC(C)C)[C@@H](O)CC(=O)O)C(C)C)C(C)C [Pepstatin A]  95.9%
7. COC(=O)c1cc2c(C(F)(F)F)cc(-c3ccccc3)cc2n1O [NHI-2]  84.3%
8. C=CCN(C)CCCCCCOc1ccc(C(=O)c2ccc(Br)cc2)c(F)c1.O=C(O)/C=C/C(=O)O [Ro 48-8071 fumarate]  43.3%
9. CN(Cc1cnc2nc(N)nc(N)c2n1)c1ccc(C(=O)N[C@@H](CCC(=O)O)C(=O)O)cc1 [Methotrexate]  42.5%
10. CC(=O)Nc1nc(C)c(-c2ccc(Cl)c(S(=O)(=O)NCCO)c2)s1 [PIK93]  29.2%

The compounds below were run on ML-2 in the same assay as above. Details: 1 nM; 72 h.
Outline: as §1

In order of rising cell viability:
1. C[C@]12C=CC(=O)C=C1CC[C@@H]1[C@@H]2[C@@H](O)C[C@@]2(C)[C@H]1CC[C@]2(O)C(=O)CO [Prednisolone]  91.5%
2. COC(=O)c1cc2c(C(F)(F)F)cc(-c3ccccc3)cc2n1O [NHI-2]  94.8%
3. CC(C)CC(=O)N[C@H](C(=O)N[C@H](C(=O)N[C@@H](CC(C)C)[C@@H](O)CC(=O)N[C@@H](C)C(=O)N[C@@H](CC(C)C)[C@@H](O)CC(=O)O)C(C)C)C(C)C [Pepstatin A]  96.5%
4. OC[C@H]1O[C@@H](n2cnc3c2N=CNC[C@H]3O)C[C@@H]1O [Pentostatin]  99.2%
5. CC[C@H](C)[C@H](N)C(=O)N1CCSC1 [P32/98]  102%
6. Cc1cccc(Nc2cc(Cl)nc(SCC(=O)O)n2)c1C [Pirinixic acid]  103%
7. CC(=O)Nc1nc(C)c(-c2ccc(Cl)c(S(=O)(=O)NCCO)c2)s1 [PIK93]  106%
8. C=CCN(C)CCCCCCOc1ccc(C(=O)c2ccc(Br)cc2)c(F)c1.O=C(O)/C=C/C(=O)O [Ro 48-8071 fumarate]  106%
9. CN(Cc1cnc2nc(N)nc(N)c2n1)c1ccc(C(=O)N[C@@H](CCC(=O)O)C(=O)O)cc1 [Methotrexate]  109%
10. CCCCCCCC/C=C\CCCCCCCC(=O)Nc1ccccc1 [Octadec-9-Enoic Acid Phenylamide]  113%

Same assay, conditions: 10 nM; 72 h

In order of falling cell viability:
1. COC(=O)c1cc2c(C(F)(F)F)cc(-c3ccccc3)cc2n1O [NHI-2]  95.1%
2. CN(Cc1cnc2nc(N)nc(N)c2n1)c1ccc(C(=O)N[C@@H](CCC(=O)O)C(=O)O)cc1 [Methotrexate]  49.7%
